Where two headings read alike, the source gives them in different places.
Columns and labels:
[1] = test system: K-Ras G12C (NCI-H358 cells); assay: Potency assay: pERK in NCI-H358 cells; type: cell-based, human; conditions: Homo sapiens; NCI-H358 cells, 4 hours; read-out: pERK EC50 (H358 KRAS G12C)
Outline: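 Cells plated the day before were exposed for 4 h at 37° C, 5% CO2 to a 10-point, 3-fold DMSO dilution series (10 mM top stock), in duplicate. Phospho-ERK was read by AlphaLISA SureFire Ultra or by In-Cell Western with DRAQ5 DNA stain, and IC50 came from a 4-parameter sigmoidal fit.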

KRAS WT = KRAS WT (Homo sapiens (Human), UniProt P01116+P62937); assay: Ras-Raf disruption/FRET/MOA assay (BRAF RBD, Cyclophilin A); type: biochemical; conditions: read-out: KRAS WT FRET data IC50
Outline: (§1)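 25 μM tagless Cyclophilin A, 12.5 nM His6-Ras-GMPPNP and 50 nM GST-BRAF RBD in HEPES pH 7.3 buffer with 5 mM MgCl2, with compound (10-point 3-fold series from 30 μM final) for 3 h at 25 °C. Anti-His Eu and anti-GST APC then added for 1.5 h. IC50 from TR-FRET ratio decrease versus DMSO.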

KRAS G13D = KRAS G13D (Homo sapiens (Human), UniProt P01116+P62937, G13D); assay: as above; type: biochemical; conditions: read-out: KRAS G13D FRET data IC50
Outline: as §1

KRAS G12C = KRAS G12C (Homo sapiens (Human), UniProt P01116+P62937, G12C); assay: as above; type: biochemical; conditions: read-out: KRAS G12C FRET IC50
Outline: as §1

KRAS G13C = KRAS G13C (Homo sapiens (Human), UniProt P01116+P62937, G13C); assay: as above; type: biochemical; conditions: read-out: KRAS G13C FRET IC50
Outline: as §1

NRAS WT = NRAS WT (Homo sapiens (Human), UniProt P01111+P62937); assay: as above; type: biochemical
Outline: (§2)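 First, 25 μM Cyclophilin A, 12.5 nM His6-Ras-GMPPNP and 50 nM GST-BRAF RBD are mixed with diluted compound at pH 7.3. Next, 3 h at 25° C. Then 10 nM anti-His Eu-W1024 plus 50 nM anti-GST allophycocyanin for 1.5 h before TR-FRET reading.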

KRAS G12S = KRAS G12S (Homo sapiens (Human), UniProt P01116+P62937, G12S); assay: as above; type: biochemical; conditions: read-out: KRAS G12S FRET IC50
Outline: as §1

NRAS G12C = NRAS G12C (Homo sapiens (Human), UniProt P01111+P62937, G12C); assay: as above; type: biochemical; conditions: read-out: NRAS G12C FRET data IC50
Outline: as §2

KRAS Q61H = KRAS Q61H (Homo sapiens (Human), UniProt P01116+P62937, Q61H); assay: as above; type: biochemical
Outline: as §1

KRAS G12D = KRAS G12D (Homo sapiens (Human), UniProt P01116+P62937, G12D); assay: as above; type: biochemical; conditions: read-out: KRAS G12D FRET IC50
Outline: as §1

KRAS G12V = KRAS G12V (Homo sapiens (Human), UniProt P01116+P62937, G12V); assay: as above; type: biochemical; conditions: read-out: KRAS G12V FRET IC50
Outline: as §1

NRAS Q61R = NRAS Q61R (Homo sapiens (Human), UniProt P01111+P62937, Q61R); assay: as above; type: biochemical
Outline: as §2

[2] = test system: NCI-H358 cells (K-Ras G12C); assay: CellTiter-Glo cell viability, NCI-H358; type: cell-based, human; conditions: Homo sapiens, NCI-H358, 120 h, read-out: H358 Cell Viability IC50
Outline: (§3)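 Five-day treatment of K-Ras mutant cells with directly dispensed compound; ATP-based luminescence endpoint. Percent of DMSO signal fit to four-parameter logistic curve.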

[3] = test system: Capan-1 cells (K-Ras G12V); assay: CellTiter-Glo cell viability, Capan-1; type: cell-based, human; conditions: Homo sapiens, CAPAN-1, 120 h, read-out: Capan-1 Cell Viability IC50
Outline: as §3

Sequence of NRAS WT (P01111 whole entry): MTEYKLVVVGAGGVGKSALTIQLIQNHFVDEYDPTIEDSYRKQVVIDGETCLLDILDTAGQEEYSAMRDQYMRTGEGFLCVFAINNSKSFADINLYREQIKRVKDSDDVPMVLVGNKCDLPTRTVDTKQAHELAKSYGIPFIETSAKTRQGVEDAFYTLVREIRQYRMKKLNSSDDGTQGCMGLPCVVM
Sequence of NRAS WT (P62937 whole entry): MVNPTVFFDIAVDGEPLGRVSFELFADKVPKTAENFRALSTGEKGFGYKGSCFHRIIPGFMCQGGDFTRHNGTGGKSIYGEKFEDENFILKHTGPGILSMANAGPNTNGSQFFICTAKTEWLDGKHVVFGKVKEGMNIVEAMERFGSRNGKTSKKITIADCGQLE
Sequence of KRAS G12C (P01116-2 other isoform, or with tags, fused parts or gaps G12C): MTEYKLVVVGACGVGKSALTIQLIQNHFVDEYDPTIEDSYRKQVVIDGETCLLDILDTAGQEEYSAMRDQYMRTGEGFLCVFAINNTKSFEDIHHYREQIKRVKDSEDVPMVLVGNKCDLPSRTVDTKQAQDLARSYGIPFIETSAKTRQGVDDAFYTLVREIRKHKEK
Sequence of KRAS G12C (P62937 whole entry): as the sequence (P62937 whole entry) above
Sequence of NRAS Q61R (P01111 whole entry Q61R): as the sequence (P01111 whole entry) above, with Q61R counted along it
Sequence of NRAS Q61R (P62937 whole entry): as the sequence (P62937 whole entry) above
Sequence of NRAS G12C (P01111 whole entry G12C): as the sequence (P01111 whole entry) above, with G12C counted along it
Sequence of NRAS G12C (P62937 whole entry): as the sequence (P62937 whole entry) above
Sequence of KRAS G13D (P01116 other isoform, or with tags, fused parts or gaps G13D): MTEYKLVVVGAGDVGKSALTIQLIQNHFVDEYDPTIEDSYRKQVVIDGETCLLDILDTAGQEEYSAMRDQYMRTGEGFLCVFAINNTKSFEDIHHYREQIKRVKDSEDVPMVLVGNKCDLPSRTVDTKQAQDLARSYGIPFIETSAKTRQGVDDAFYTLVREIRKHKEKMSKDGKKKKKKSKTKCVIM
Sequence of KRAS G13D (P62937 whole entry): as the sequence (P62937 whole entry) above
Sequence of KRAS G12S (P01116 other isoform, or with tags, fused parts or gaps G12S): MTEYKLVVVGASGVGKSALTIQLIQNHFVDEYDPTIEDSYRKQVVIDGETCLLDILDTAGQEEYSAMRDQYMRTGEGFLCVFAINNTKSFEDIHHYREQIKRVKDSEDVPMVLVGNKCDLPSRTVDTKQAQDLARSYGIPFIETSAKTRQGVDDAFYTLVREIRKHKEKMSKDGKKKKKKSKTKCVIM
Sequence of KRAS G12S (P62937 whole entry): as the sequence (P62937 whole entry) above
Sequence of KRAS WT (P01116 other isoform, or with tags, fused parts or gaps): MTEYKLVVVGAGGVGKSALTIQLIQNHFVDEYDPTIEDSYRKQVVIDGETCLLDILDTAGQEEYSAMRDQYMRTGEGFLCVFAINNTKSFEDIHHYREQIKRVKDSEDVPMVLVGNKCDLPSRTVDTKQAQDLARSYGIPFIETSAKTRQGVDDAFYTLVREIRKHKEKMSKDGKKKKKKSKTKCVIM
Sequence of KRAS WT (P62937 whole entry): as the sequence (P62937 whole entry) above
Sequence of KRAS G13C (P01116 other isoform, or with tags, fused parts or gaps G13C): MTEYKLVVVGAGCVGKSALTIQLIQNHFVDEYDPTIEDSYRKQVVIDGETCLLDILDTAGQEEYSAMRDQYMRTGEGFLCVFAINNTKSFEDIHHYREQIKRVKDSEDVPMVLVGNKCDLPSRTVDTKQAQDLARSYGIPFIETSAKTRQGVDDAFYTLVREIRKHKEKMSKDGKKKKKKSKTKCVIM
Sequence of KRAS G13C (P62937 whole entry): as the sequence (P62937 whole entry) above
Sequence of KRAS G12D (P01116 other isoform, or with tags, fused parts or gaps G12D): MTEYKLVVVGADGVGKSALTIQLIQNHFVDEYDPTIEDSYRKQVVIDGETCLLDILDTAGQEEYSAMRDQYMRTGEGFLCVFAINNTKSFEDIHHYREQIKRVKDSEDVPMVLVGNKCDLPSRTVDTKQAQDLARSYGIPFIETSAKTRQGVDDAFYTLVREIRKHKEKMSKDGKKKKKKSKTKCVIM
Sequence of KRAS G12D (P62937 whole entry): as the sequence (P62937 whole entry) above
Sequence of KRAS G12V (P01116 other isoform, or with tags, fused parts or gaps G12V): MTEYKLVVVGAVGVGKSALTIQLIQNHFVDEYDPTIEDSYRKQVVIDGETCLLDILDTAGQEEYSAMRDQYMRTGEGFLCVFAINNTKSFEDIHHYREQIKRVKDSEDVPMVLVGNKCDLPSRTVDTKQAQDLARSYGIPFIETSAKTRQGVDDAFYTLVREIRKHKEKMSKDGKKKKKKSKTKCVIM
Sequence of KRAS G12V (P62937 whole entry): as the sequence (P62937 whole entry) above
Sequence of KRAS Q61H (P01116 other isoform, or with tags, fused parts or gaps Q61H): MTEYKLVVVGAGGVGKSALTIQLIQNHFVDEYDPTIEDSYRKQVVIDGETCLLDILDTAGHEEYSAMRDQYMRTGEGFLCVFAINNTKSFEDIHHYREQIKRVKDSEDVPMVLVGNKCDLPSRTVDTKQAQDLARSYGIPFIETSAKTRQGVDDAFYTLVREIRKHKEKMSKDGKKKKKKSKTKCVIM
Sequence of KRAS Q61H (P62937 whole entry): as the sequence (P62937 whole entry) above

Compound | EC50 [1] [nM] | IC50 (KRAS WT) [nM] | IC50 (KRAS G13D) [nM] | IC50 (KRAS G12C) [nM] | IC50 (KRAS G13C) [nM] | IC50 (NRAS WT) [nM] | IC50 (KRAS G12S) [nM] | IC50 (NRAS G12C) [nM] | IC50 (KRAS Q61H) [nM] | IC50 (KRAS G12D) [nM] | IC50 (KRAS G12V) [nM] | IC50 (NRAS Q61R) [nM] | IC50 ([2]; K-Ras G12C, 5-day treatment) [nM] | IC50 ([3]; K-Ras G12V, 5-day treatment) [nM] | IC50 [2] [nM] | IC50 [3] [nM]
CCn1c(-c2cccnc2[C@H](C)OC)c2c3cc(ccc31)-c1csc(n1)C[C@H](NC(=O)[C@H](C(C)C)N(C)C(=O)N1CC(S(C)(=O)=O)C1)C(=O)N1CCC[C@H](N1)C(=O)OCC(C)(C)C2 [Compound A383] | < 5000 | 100 to 1000 | 100 to 1000 | 10 to 100 | 100 to 1000 | 100 to 1000 | 100 to 1000 | 10 to 100 | 10 to 100 | 100 to 1000 | 100 to 1000 | 100 to 1000 | 10 to 100 | 10 to 100 |  | 
CCn1c(-c2cccnc2[C@H](C)OC)c2c3cc(ccc31)-c1csc(n1)C[C@H](NC(=O)[C@H](C(C)C)N(C)C(=O)N1C[C@@H]3OCCN(C)[C@H]3C1)C(=O)N1CCC[C@H](N1)C(=O)OCC(C)(C)C2 [Compound A445] | < 5000 | 100 to 1000 | 100 to 1000 | 100 to 1000 | 100 to 1000 | 100 to 1000 | 100 to 1000 | 100 to 1000 | 100 to 1000 | 1000 to 10000 | 100 to 1000 | 100 to 1000 | 10 to 100 | 10 to 100 |  | 
CCn1c(-c2cccnc2[C@H](C)OC)c2c3cc(ccc31)-c1csc(n1)C[C@H](NC(=O)[C@H](C(C)C)N(C)C(=O)N1CCCC[C@H](N(C)C)C1)C(=O)N1CCC[C@H](N1)C(=O)OCC(C)(C)C2 [Compound A491] | < 5000 | 10 to 100 | 100 to 1000 | 10 to 100 | 100 to 1000 | 10 to 100 | 10 to 100 | 10 to 100 | 10 to 100 | 100 to 1000 | 100 to 1000 | 100 to 1000 | 10 to 100 | 10 to 100 |  | 
CCn1c(-c2cccnc2[C@H](C)OC)c2c3cc(ccc31)-c1csc(n1)C[C@H](NC(=O)[C@H](C(C)C)N(C)C(=O)N1CC3(CC(N(C)C4COC4)C3)C1)C(=O)N1CCC[C@H](N1)C(=O)OCC(C)(C)C2 [Compound A511] | < 5000 | 100 to 1000 | 1000 to 10000 | 100 to 1000 | 100 to 1000 | 100 to 1000 | 100 to 1000 | 100 to 1000 | 100 to 1000 | 1000 to 10000 | 100 to 1000 | 100 to 1000 | 10 to 100 | 10 to 100 |  | 
CCn1c(-c2cccnc2[C@H](C)OC)c2c3cc(ccc31)-c1csc(n1)C[C@H](NC(=O)[C@H](C(C)C)N(C)C(=O)N1CC3(CC(NCCOC)C3)C1)C(=O)N1CCC[C@H](N1)C(=O)OCC(C)(C)C2 [Compound A512] |  | 100 to 1000 | 100 to 1000 | 100 to 1000 | 100 to 1000 | 100 to 1000 | 100 to 1000 | 100 to 1000 | 100 to 1000 | 1000 to 10000 | 100 to 1000 | 100 to 1000 | 10 to 100 | 10 to 100 |  | 
CCn1c(-c2cccnc2[C@H](C)OC)c2c3cc(ccc31)-c1csc(n1)C[C@H](NC(=O)[C@H](C(C)C)N(C)C(=O)N(C)CCc1ccncc1)C(=O)N1CCC[C@H](N1)C(=O)OCC(C)(C)C2 [Compound A557] |  | 100 to 1000 | 100 to 1000 | 10 to 100 | 100 to 1000 | 100 to 1000 | 100 to 1000 | 10 to 100 | 10 to 100 | 100 to 1000 | 100 to 1000 | 100 to 1000 | 10 to 100 | 100 to 1000 |  | 
CCn1c(-c2cccnc2[C@H](C)OC)c2c3cc(ccc31)-c1csc(n1)C[C@H](NC(=O)[C@H](C(C)C)N(C)C(=O)N1CCC[C@H](N(C)C)C1)C(=O)N1CCC[C@H](N1)C(=O)OCC(C)(C)C2 [Compound A569] |  | 100 to 1000 | 100 to 1000 | 10 to 100 | 100 to 1000 | 10 to 100 | 100 to 1000 | 10 to 100 | 10 to 100 | 100 to 1000 | 100 to 1000 | 100 to 1000 |  |  | 10 to 100 | 10 to 100
CCn1c(-c2cccnc2[C@H](C)OC)c2c3cc(ccc31)-c1csc(n1)C[C@H](NC(=O)[C@H](C(C)C)N(C)C(=O)N1CC(CN(C)C)C1)C(=O)N1CCC[C@H](N1)C(=O)OCC(C)(C)C2 [Compound A576] |  | 100 to 1000 | 100 to 1000 | 10 to 100 | 100 to 1000 | 100 to 1000 | 100 to 1000 | 10 to 100 | 100 to 1000 | 100 to 1000 | 100 to 1000 | 100 to 1000 | 10 to 100 | 10 to 100 |  | 
CCn1c(-c2cccnc2[C@H](C)OC)c2c3cc(ccc31)-c1csc(n1)C[C@H](NC(=O)[C@H](C(C)C)N(C)C(=O)N1CCO[C@@H](CN(C)C)C1)C(=O)N1CCC[C@H](N1)C(=O)OCC(C)(C)C2 [Compound A591] |  | 100 to 1000 | 100 to 1000 | 10 to 100 | 100 to 1000 | 10 to 100 | 100 to 1000 | 10 to 100 | 10 to 100 | 100 to 1000 | 100 to 1000 | 100 to 1000 | 10 to 100 | 10 to 100 |  | 

From patent US20250195521A1 (Revolution Medicines, Inc., priority 2020, published 2025)
